Results: PubChem BioAssay (NCI)
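Cultured in 96-well plates, cells were exposed to test compound for 48 hours across five concentrations. At the TGI there is no net growth.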

Legend:
Assay in all cases: inhibition of tumour cell growth, NCI panel, 48 h
HOP-62 NSCLC = test system: HOP-62 NSCLC
ACHN renal = test system: ACHN renal
MDA-MB-435 = test system: MDA-MB-435
SN12C renal = test system: SN12C renal
OVCAR-5 ovarian = test system: OVCAR-5 ovarian
NCI-H522 lung = test system: NCI-H522 lung
K-562 leukemia = test system: K-562 leukemia
786-0 renal = test system: 786-0 renal
MALME-3M melanoma = test system: MALME-3M melanoma
HCT-116 colon = test system: HCT-116 colon
SF-268 CNS = test system: SF-268 CNS
CAKI-1 renal = test system: CAKI-1 renal
SK-MEL-2 melanoma = test system: SK-MEL-2 melanoma
SK-MEL-28 melanoma = test system: SK-MEL-28 melanoma
SK-MEL-5 melanoma = test system: SK-MEL-5 melanoma
NCI/ADR-RES ovarian = test system: NCI/ADR-RES ovarian
SNB-19 CNS = test system: SNB-19 CNS
OVCAR-4 ovarian = test system: OVCAR-4 ovarian
A498 renal = test system: A498 renal

Compound	TGI (HOP-62 NSCLC)	TGI (ACHN renal)	TGI (MDA-MB-435)	TGI (SN12C renal)	TGI (OVCAR-5 ovarian)	TGI (NCI-H522 lung)	TGI (K-562 leukemia)	TGI (786-0 renal)	TGI (MALME-3M melanoma)	TGI (HCT-116 colon)	TGI (SF-268 CNS)	TGI (CAKI-1 renal)	TGI (SK-MEL-2 melanoma)	TGI (SK-MEL-28 melanoma)	TGI (SK-MEL-5 melanoma)	TGI (NCI/ADR-RES ovarian)	TGI (SNB-19 CNS)	TGI (OVCAR-4 ovarian)	TGI (A498 renal)
c1ccc(-c2cc(-c3ccncc3)cc(-c3ccncc3)n2)cc1	> 100 µM	> 100 µM	> 100 µM	> 100 µM	> 100 µM	> 100 µM	> 100 µM	> 100 µM	> 100 µM	> 100 µM	> 100 µM	> 100 µM	> 100 µM	> 100 µM	> 100 µM	> 100 µM	> 100 µM	> 100 µM	–
CC1=NC=C(O)c2ccccc2O1	> 100 µM	> 100 µM	–	> 100 µM	–	–	> 100 µM	> 100 µM	> 100 µM	> 100 µM	> 100 µM	–	> 100 µM	> 100 µM	–	–	> 100 µM	> 100 µM	> 100 µM
O=P(CCOc1ccccc1OCCP(=O)(c1ccccc1)c1ccc2c(c1)OCCOCCOCCOCCO2)(c1ccccc1)c1ccc2c(c1)OCCOCCOCCOCCO2 (stereo unspecified)	> 100 µM	> 100 µM	–	> 100 µM	> 100 µM	> 100 µM	> 100 µM	> 100 µM	> 100 µM	> 100 µM	> 100 µM	–	> 100 µM	> 100 µM	> 100 µM	–	> 100 µM	> 100 µM	> 100 µM
CCCCCC#COC1CC(C)CC[C@@H]1C(C)C (stereo partly specified)	> 100 µM	> 100 µM	–	> 100 µM	> 100 µM	52.2 µM	> 100 µM	> 100 µM	> 100 µM	> 100 µM	> 100 µM	> 100 µM	> 100 µM	> 100 µM	> 100 µM	–	> 100 µM	> 100 µM	–
CSC1=C(C#N)C(=O)N(c2ccc(C)cc2)C(=O)C1C#N (stereo unspecified)	> 100 µM	> 100 µM	> 100 µM	> 100 µM	> 100 µM	> 100 µM	> 100 µM	> 100 µM	> 100 µM	> 100 µM	> 100 µM	> 100 µM	> 100 µM	> 100 µM	> 100 µM	–	> 100 µM	> 100 µM	> 100 µM
CC1CCC2CC1NC(=O)CCOCCC(=O)NC2(C)C (stereo unspecified)	> 100 µM	–	> 100 µM	> 100 µM	> 100 µM	> 100 µM	> 100 µM	> 100 µM	–	> 100 µM	> 100 µM	–	–	> 100 µM	> 100 µM	–	> 100 µM	> 100 µM	–
COC1=CC(=O)c2c(cc3c(c2O)-c2c(OC)cc4cc5c(c(O)c4c2OC(=O)CC(C)(O)C3)C(=O)CC(C)(O)C5)C1=O (stereo unspecified)	2.76 µM	8.35 µM	–	3.27 µM	4.27 µM	2.67 µM	12.6 µM	7.72 µM	4.04 µM	7.58 µM	9.26 µM	5.87 µM	2.71 µM	4.36 µM	0.606 µM	–	4.13 µM	10.3 µM	4.42 µM
COc1ccc2[nH]c3c4c(cc(-c5ccccc5)c3c2c1)C(=O)N(c1ccccc1)C4=O	> 71.3 µM	> 100 µM	–	> 100 µM	> 100 µM	61 µM	> 100 µM	29.5 µM	65 µM	> 100 µM	97.1 µM	> 77.7 µM	> 100 µM	> 100 µM	> 100 µM	–	> 81.8 µM	3.56 µM	> 73.8 µM
CN(C)CC1CCCCCCCCCCCCC(CN(C)C)C1=O (stereo unspecified)	30.3 µM	29.9 µM	–	29.4 µM	30.6 µM	–	–	21.7 µM	29.4 µM	16.8 µM	26 µM	26.3 µM	26 µM	26.6 µM	27.8 µM	–	31.6 µM	29.4 µM	33 µM
Fc1cccc(C2SCc3nc4cc5ccccc5cc4n32)c1 (stereo unspecified)	> 100 µM	> 100 µM	> 100 µM	> 100 µM	> 100 µM	–	> 100 µM	> 100 µM	> 100 µM	> 100 µM	> 100 µM	> 100 µM	> 100 µM	> 100 µM	–	> 100 µM	> 100 µM	> 100 µM	–
Oc1c(Cl)c(Cl)c(O)c(CCNc2nccs2)c1Cl	40.7 µM	23.4 µM	41.8 µM	49.2 µM	39 µM	–	> 100 µM	33.5 µM	54.9 µM	23.6 µM	36.1 µM	29.3 µM	48.4 µM	67.9 µM	8.71 µM	50.5 µM	44.1 µM	> 100 µM	–
C/C1=C/C[C@@H](/C(C)=C/c2csc(C)n2)OC(=O)C[C@H](O)C(C)(C)C(=O)[C@H](C)[C@@H](O)[C@@H](C)CCC1	0.259 µM	0.323 µM	–	0.209 µM	0.189 µM	< 0.0001 µM	–	0.228 µM	–	0.173 µM	–	0.305 µM	0.188 µM	–	0.167 µM	0.000238 µM	0.189 µM	0.472 µM	–
CN1CC=C(c2cccn2C)CC1	> 100 µM	> 100 µM	> 100 µM	> 100 µM	> 100 µM	> 100 µM	> 100 µM	> 100 µM	> 100 µM	> 100 µM	> 100 µM	> 100 µM	> 100 µM	> 100 µM	> 100 µM	> 100 µM	> 100 µM	> 100 µM	–
O=C(CCN1CCC(CCO)CC1)Nc1ccc2c(c1)C(=O)c1ccc(NC(=O)CCN3CCC(CCO)CC3)cc1C2=O	37.5 µM	> 100 µM	–	> 100 µM	> 100 µM	24 µM	42.6 µM	27.2 µM	28.6 µM	31.2 µM	45.7 µM	> 100 µM	13.6 µM	> 100 µM	> 100 µM	–	68.8 µM	63.2 µM	92.8 µM
O=C(Oc1c(Br)cc(Br)cc1C(=O)Oc1ccccc1)C(=O)Oc1c(Br)cc(Br)cc1C(=O)Oc1ccccc1	45.1 µM	> 100 µM	> 100 µM	97.4 µM	89.9 µM	32.6 µM	55.7 µM	50.3 µM	59.2 µM	31.6 µM	> 100 µM	57.9 µM	93.3 µM	> 100 µM	31 µM	> 100 µM	64.8 µM	–	–
CC(=O)Oc1ccc(Nn2c3ccccc3c3ccccc32)c(C)c1	> 100 µM	–	–	> 100 µM	> 100 µM	46.3 µM	> 100 µM	41.7 µM	> 100 µM	> 100 µM	> 100 µM	–	> 100 µM	> 100 µM	> 100 µM	–	> 100 µM	–	–
CC(=O)OCC1OC(OC(C)=O)C(Nc2ncc(-c3ccc(C)cc3)s2)C(OC(C)=O)C1OC(C)=O (stereo unspecified)	42.2 µM	27.7 µM	30.3 µM	40.8 µM	> 100 µM	34.3 µM	65.8 µM	40.1 µM	41.5 µM	32.1 µM	36.2 µM	31.2 µM	59.7 µM	31.2 µM	29.2 µM	76.8 µM	52.9 µM	35.4 µM	–
Cc1ccc(C(=O)N2CCCCC2)cc1N=NN(C)C	> 100 µM	> 100 µM	–	> 100 µM	> 100 µM	> 100 µM	> 100 µM	> 100 µM	> 100 µM	> 100 µM	> 100 µM	> 100 µM	> 100 µM	> 100 µM	> 100 µM	–	> 100 µM	> 100 µM	> 100 µM
CN(C)CCN(C)C(=O)C1CCCN1C(=O)OCc1ccccc1 (stereo unspecified)	> 100 µM	> 100 µM	–	> 100 µM	> 100 µM	24 µM	> 100 µM	> 100 µM	> 100 µM	> 100 µM	> 100 µM	–	> 100 µM	> 100 µM	> 100 µM	–	> 100 µM	> 100 µM	> 100 µM
O=C(Cc1ccccc1)N/N=C(/c1nc2ccc([N+](=O)[O-])cc2[nH]c1=O)C(O)c1ccc(C(O)/C(=N/NC(=O)Cc2ccccc2)c2nc3ccc([N+](=O)[O-])cc3[nH]c2=O)cc1 (stereo unspecified)	> 100 µM	> 100 µM	–	> 100 µM	> 100 µM	94.6 µM	> 100 µM	> 100 µM	> 100 µM	> 100 µM	> 100 µM	> 100 µM	> 100 µM	> 100 µM	–	–	> 100 µM	> 100 µM	> 100 µM
O=C1C=CC(=O)c2cc(Sc3ccccc3)c(=O)c(Sc3ccccc3)cc21	> 100 µM	36 µM	–	> 100 µM	–	25.4 µM	61.9 µM	> 100 µM	–	> 100 µM	> 100 µM	> 100 µM	> 100 µM	> 100 µM	> 100 µM	–	> 100 µM	> 100 µM	> 100 µM
CC(C)COP(C)(=O)C(N)(C(F)(F)F)C(F)(F)F (stereo unspecified)	> 100 µM	> 100 µM	> 100 µM	> 100 µM	> 100 µM	–	> 100 µM	> 100 µM	> 100 µM	> 100 µM	> 100 µM	> 100 µM	> 100 µM	> 100 µM	> 100 µM	> 100 µM	–	> 100 µM	–
Cc1c(-c2nc(N)c(C#N)c(N)c2C#N)c(=O)oc2ccccc12	> 100 µM	> 100 µM	–	> 100 µM	> 100 µM	–	> 100 µM	> 100 µM	> 100 µM	> 100 µM	> 100 µM	> 100 µM	> 100 µM	> 100 µM	> 100 µM	> 100 µM	> 100 µM	> 100 µM	> 100 µM
Cc1ccc(SCC(CF)OC(C)n2cnc3c(Cl)nc(N)nc32)cc1 (stereo unspecified)	> 100 µM	> 100 µM	> 100 µM	> 100 µM	> 100 µM	36.1 µM	–	> 100 µM	> 100 µM	> 100 µM	> 100 µM	> 100 µM	> 100 µM	> 100 µM	53.7 µM	> 100 µM	> 100 µM	52.6 µM	–
O=[N+]([O-])c1ccc(CN=C2NNS(=O)(=O)c3ccccc32)cc1	–	> 100 µM	–	> 100 µM	> 100 µM	–	> 100 µM	> 100 µM	> 100 µM	> 100 µM	> 100 µM	> 100 µM	> 100 µM	–	> 100 µM	–	> 100 µM	> 100 µM	> 100 µM
O=C1Oc2cc3c(c4cccc1c24)OCN(c1ccccc1)C3	> 100 µM	> 100 µM	–	> 100 µM	> 100 µM	56.9 µM	63 µM	> 100 µM	> 100 µM	> 100 µM	> 100 µM	> 100 µM	> 100 µM	> 100 µM	> 100 µM	–	> 100 µM	> 100 µM	> 100 µM
O=C(Cc1ccccc1)NN1C(=O)C(Cl)C1c1cccc([N+](=O)[O-])c1 (stereo unspecified)	> 100 µM	> 100 µM	–	> 100 µM	> 100 µM	3.64 µM	54 µM	> 84.4 µM	> 100 µM	> 84.2 µM	> 100 µM	> 63.8 µM	> 73.8 µM	> 100 µM	> 100 µM	–	> 100 µM	> 92.9 µM	> 100 µM
COc1ccc(NS(=O)c2c(C)cc(C)cc2C)cc1 (stereo unspecified)	> 100 µM	> 100 µM	> 100 µM	> 100 µM	> 100 µM	> 100 µM	> 100 µM	> 100 µM	49 µM	> 100 µM	> 100 µM	–	> 100 µM	> 100 µM	92.1 µM	> 100 µM	> 100 µM	> 100 µM	–
